Like-named read-outs stand apart in the source and are kept apart here.
Columns and labels:
cells = cells treated with MLN8054; cited from earlier work
[1] = mouse, in vivo
NCI-H69 = NCI-H69 small cell lung cancer xenograft model
Experimental: Procedure. […] Treatments began when tumors reached approximately 200 mm^3 following subcutaneous tumor implantation with NCI-H69 tumor fragments for all groups containing 10 female immunocompromised nu/nu mice per group. MLN8237 was tested at a dose of 20 mg/kg administered PO on a QIDx21-Q8Hx2 schedule and at doses of 20 and 10 mg/kg on a QIDx21 schedule. Paclitaxel was tested at doses of 30 and 15 mg/kg administered IV on a Q7Dx3 schedule. Each paclitaxel dose was combined with each MLN8237 dose on the QDx21 treatment schedule. In the combination treatment groups MLN8237 was administered first to the animals, followed immediately by the administration of paclitaxel. One group served as a vehicle-treated control group receiving PO treatment with the MLN8237 vehicle on a QIDx21 schedule.

NCI-H82 = NCI-H82 small cell lung cancer xenograft model
[2] = Single agent maximum tolerated dose in mice

O=C(O)c1ccc(Nc2ncc3c(n2)-c2ccc(Cl)cc2C(c2c(F)cccc2F)=NC3)cc1 [MLN8054]
cell fate after repeated defective mitotic divisions (cells): undergo senescence | chromosome content of treated cells (cells): develop aneuploidy that increases over time

COc1cc(Nc2ncc3c(n2)-c2ccc(Cl)cc2C(c2c(F)cccc2OC)=NC3)ccc1C(=O)[O-].O.[Na+] [alisertib, sodium 4-{[9-chloro-7-(2-fluoro-6-methoxyphenyl)-5H-pyrimido[5,4-d][2]benzazepin-2-yl]amino}-2-methoxybenzoate monohydrate]
single agent maximum tolerated dose in mice [1]: 20 mg/kg BID | antitumor activity (NCI-H69; single agent alisertib 20 mg/kg BID (maximum tolerated dose)): prolonged regressions | antitumor activity (NCI-H82; single agent alisertib 10 mg/kg QD): no antitumor activity

CC(=O)O[C@H]1C(=O)[C@@]2(C)[C@H]([C@H](OC(=O)c3ccccc3)[C@]3(O)C[C@H](OC(=O)[C@H](O)[C@@H](NC(=O)c4ccccc4)c4ccccc4)C(C)=C1C3(C)C)[C@]1(OC(C)=O)CO[C@@H]1C[C@@H]2O [paclitaxel]
single agent maximum tolerated dose in mice [2]: 30 mg/kg QD | antitumor activity (NCI-H69; single agent paclitaxel 30 mg/kg (maximum tolerated dose)): sustained cures | antitumor activity (NCI-H82; single agent paclitaxel 15 mg/kg QW): no antitumor activity

CC[C@@]1(O)C(=O)OCc2c1cc1n(c2=O)Cc2cc3c(CN(C)C)c(O)ccc3nc2-1 [topotecan]
single agent maximum tolerated dose ([2]; IV): 1.5 mg/kg Q5D

Reference: patent publication US10213436B2, “Methods of treating cancer using aurora kinase inhibitors” (Millennium Pharmaceuticals, Inc., priority 2012, dated 2019)
